Reference: ChEMBL document CHEMBL1201862, “PubChem BioAssay data set” (2004)
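Test compounds were applied to cells in 96-well plates for 48 hours at 5 doses. GI50 is the concentration that inhibits growth by half.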 Active and inactive are the calls of the source. Rule as the data show it: active = GI50 up to about 1.1 µM and inactive = higher.

Key:
Assay in all cases: growth of human tumour cells (NCI), 48 h
MDA-N = tested on: MDA-N
MDA-MB-435 = tested on: MDA-MB-435
NCI-H226 = tested on: NCI-H226
HCT-116 = tested on: HCT-116
SW-620 = tested on: SW-620
HL-60 = tested on: HL-60
SF-268 = tested on: SF-268
MDA-MB-231 = tested on: MDA-MB-231
HOP-92 = tested on: HOP-92
A498 = tested on: A498
SF-539 = tested on: SF-539
PC-3 = tested on: PC-3
COLO 205 = tested on: COLO 205
HCC 2998 = tested on: HCC 2998
UACC-62 = tested on: UACC-62
NCI/ADR-RES = tested on: NCI/ADR-RES
A549 = tested on: A549
TK-10 = tested on: TK-10
RXF 393 = tested on: RXF 393
Hs-578T = tested on: Hs-578T
MOLT-4 = tested on: MOLT-4
OVCAR-8 = tested on: OVCAR-8
K562 = tested on: K562
RPMI-8226 = tested on: RPMI-8226
SK-MEL-2 = tested on: SK-MEL-2
HT-29 = tested on: HT-29
IGROV-1 = tested on: IGROV-1
786-0 = tested on: 786-0
SK-OV-3 = tested on: SK-OV-3
KM12 = tested on: KM12
OVCAR-5 = tested on: OVCAR-5
OVCAR-3 = tested on: OVCAR-3
NCI-H23 = tested on: NCI-H23
SR = tested on: SR
ACHN = tested on: ACHN
SNB-75 = tested on: SNB-75
NCI-H522 = tested on: NCI-H522
DU-145 = tested on: DU-145
T47D = tested on: T47D
CAKI-1 = tested on: CAKI-1
LOX IMVI = tested on: LOX IMVI
SK-MEL-5 = tested on: SK-MEL-5
UACC-257 = tested on: UACC-257
OVCAR-4 = tested on: OVCAR-4
SN12C = tested on: SN12C
BT-549 = tested on: BT-549
M14 = tested on: M14
UO-31 = tested on: UO-31
Malme-3M = tested on: Malme-3M
HCT-15 = tested on: HCT-15
HOP-62 = tested on: HOP-62
SF-295 = tested on: SF-295
EKVX = tested on: EKVX
NCI-H460 = tested on: NCI-H460
SNB-19 = tested on: SNB-19
CCRF-CEM = tested on: CCRF-CEM
SK-MEL-28 = tested on: SK-MEL-28
MCF7 = tested on: MCF7
U-251 = tested on: U-251
KM-20L2 = tested on: KM-20L2
DLD-1 = tested on: DLD-1
LXFL 529 = tested on: LXFL 529
SNB-78 = tested on: SNB-78
M19-MEL = tested on: M19-MEL

Structure (SMILES): O=C(O)C(CSC(c1ccccc1)(c1ccccc1)c1ccccc1)/N=C/c1cccs1 (stereo not drawn)
- GI50 (MDA-N): 0.357 µM (active)
- GI50 (MDA-MB-435): 0.324 µM (active)
- GI50 (NCI-H226): 9.12 µM (inactive)
- GI50 (HCT-116): 0.468 µM (active)
- GI50 (SW-620): 1.76 µM (inactive)
- GI50 (HL-60): 2.54 µM (inactive)
- GI50 (SF-268): 2.42 µM (inactive)
- GI50 (MDA-MB-231): 1.57 µM (inactive)
- GI50 (HOP-92): 14.6 µM (inactive)
- GI50 (A498): 30.3 µM (inactive)
- GI50 (SF-539): 1.27 µM (inactive)
- GI50 (PC-3): 1.89 µM (inactive)
- GI50 (COLO 205): 1.69 µM (inactive)
- GI50 (HCC 2998): 2.06 µM (inactive)
- GI50 (UACC-62): 1.17 µM (inactive)
- GI50 (NCI/ADR-RES): 14 µM (inactive)
- GI50 (A549): 3.95 µM (inactive)
- GI50 (TK-10): 10.8 µM (inactive)
- GI50 (RXF 393): 2.07 µM (inactive)
- GI50 (Hs-578T): 3.2 µM (inactive)
- GI50 (MOLT-4): 4.19 µM (inactive)
- GI50 (OVCAR-8): 2.55 µM (inactive)
- GI50 (K562): 3.54 µM (inactive)
- GI50 (RPMI-8226): 2.45 µM (inactive)
- GI50 (SK-MEL-2): 2.06 µM (inactive)
- GI50 (HT-29): 2.96 µM (inactive)
- GI50 (IGROV-1): 1.95 µM (inactive)
- GI50 (786-0): 1.17 µM (inactive)
- GI50 (SK-OV-3): 0.968 µM (active)
- GI50 (KM12): 2.78 µM (inactive)
- GI50 (OVCAR-5): 5.45 µM (inactive)
- GI50 (OVCAR-3): 2.31 µM (inactive)
- GI50 (NCI-H23): 4.94 µM (inactive)
- GI50 (SR): 4.42 µM (inactive)
- GI50 (ACHN): 12.8 µM (inactive)
- GI50 (SNB-75): 5.48 µM (inactive)
- GI50 (NCI-H522): 1.16 µM (inactive)
- GI50 (DU-145): 3.85 µM (inactive)
- GI50 (T47D): 3.37 µM (inactive)
- GI50 (CAKI-1): 7.46 µM (inactive)
- GI50 (LOX IMVI): 4.34 µM (inactive)
- GI50 (SK-MEL-5): 0.484 µM (active)
- GI50 (UACC-257): 4.13 µM (inactive)
- GI50 (OVCAR-4): 15.1 µM (inactive)
- GI50 (SN12C): 3.27 µM (inactive)
- GI50 (BT-549): 4.97 µM (inactive)
- GI50 (M14): 0.378 µM (active)
- GI50 (UO-31): 17.7 µM (inactive)
- GI50 (Malme-3M): 3.6 µM (inactive)
- GI50 (HCT-15): 4.24 µM
- GI50 (HOP-62): 5.62 µM (inactive)
- GI50 (SF-295): 1.26 µM (inactive)
- GI50 (EKVX): 5.42 µM (inactive)
- GI50 (NCI-H460): 3.16 µM (inactive)
- GI50 (SNB-19): 2.42 µM (inactive)
- GI50 (CCRF-CEM): 1.87 µM (inactive)
- GI50 (SK-MEL-28): 7.48 µM (inactive)
- GI50 (MCF7): 0.853 µM (active)
- GI50 (U-251): 2 µM (inactive)

Structure (SMILES): Cc1ccc(-c2c(-c3ccccc3)[nH]c(C)c2C(=O)ONC(=O)c2ccccc2)cc1
- GI50 (MDA-N): 2.35 µM (inactive)
- GI50 (MDA-MB-435): 2.19 µM (inactive)
- GI50 (NCI-H226): 7.24 µM (inactive)
- GI50 (HCT-116): 2.48 µM (inactive)
- GI50 (SW-620): 8.51 µM (inactive)
- GI50 (HL-60): 0.673 µM (active)
- GI50 (SF-268): 2.36 µM (inactive)
- GI50 (MDA-MB-231): 3.4 µM (inactive)
- GI50 (HOP-92): 1.67 µM (inactive)
- GI50 (A498): 12.7 µM (inactive)
- GI50 (SF-539): 2.97 µM (inactive)
- GI50 (PC-3): 5.92 µM (inactive)
- GI50 (COLO 205): 11.7 µM (inactive)
- GI50 (HCC 2998): 15.5 µM (inactive)
- GI50 (UACC-62): 10.2 µM (inactive)
- GI50 (NCI/ADR-RES): 4.65 µM (inactive)
- GI50 (A549): 2.52 µM (inactive)
- GI50 (TK-10): 5.52 µM (inactive)
- GI50 (RXF 393): 1.87 µM (inactive)
- GI50 (Hs-578T): 2.01 µM (inactive)
- GI50 (MOLT-4): 2.74 µM (inactive)
- GI50 (OVCAR-8): 4.62 µM (inactive)
- GI50 (K562): 2.55 µM (inactive)
- GI50 (RPMI-8226): 3.46 µM (inactive)
- GI50 (SK-MEL-2): 3.7 µM (inactive)
- GI50 (HT-29): 7.83 µM (inactive)
- GI50 (IGROV-1): 1.46 µM (inactive)
- GI50 (786-0): 3.03 µM (inactive)
- GI50 (SK-OV-3): 14.4 µM (inactive)
- GI50 (KM12): 9.68 µM (inactive)
- GI50 (OVCAR-5): 8.65 µM (inactive)
- GI50 (OVCAR-3): 4.49 µM (inactive)
- GI50 (NCI-H23): 5.53 µM (inactive)
- GI50 (SR): 1.66 µM (inactive)
- GI50 (ACHN): 1.91 µM (inactive)
- GI50 (SNB-75): 1.92 µM (inactive)
- GI50 (NCI-H522): 2.31 µM (inactive)
- GI50 (DU-145): 1.82 µM (inactive)
- GI50 (T47D): 4.6 µM (inactive)
- GI50 (CAKI-1): 2.19 µM (inactive)
- GI50 (LOX IMVI): 1.75 µM (inactive)
- GI50 (SK-MEL-5): 6.41 µM (inactive)
- GI50 (UACC-257): 13.7 µM (inactive)
- GI50 (OVCAR-4): 2.72 µM (inactive)
- GI50 (SN12C): 2.53 µM (inactive)
- GI50 (BT-549): 3.52 µM (inactive)
- GI50 (M14): 5.19 µM (inactive)
- GI50 (UO-31): 0.303 µM (active)
- GI50 (Malme-3M): 11.4 µM (inactive)
- GI50 (HCT-15): 9.25 µM
- GI50 (HOP-62): 1.99 µM (inactive)
- GI50 (SF-295): 1.93 µM (inactive)
- GI50 (EKVX): 7.28 µM (inactive)
- GI50 (NCI-H460): 2.17 µM (inactive)
- GI50 (SNB-19): 6.38 µM (inactive)
- GI50 (CCRF-CEM): 2.97 µM (inactive)
- GI50 (SK-MEL-28): 12.1 µM (inactive)
- GI50 (MCF7): 4.84 µM (inactive)
- GI50 (U-251): 1.84 µM (inactive)

Structure (SMILES): Oc1ccccc1-c1nnc(S)n1/N=C/c1ccc(-c2ccc(Br)cc2)o1
- GI50 (NCI-H226): 22.9 µM (inactive)
- GI50 (HCT-116): 33.7 µM (inactive)
- GI50 (SW-620): 38.6 µM (inactive)
- GI50 (SF-268): 40.3 µM (inactive)
- GI50 (HOP-92): 18.4 µM (inactive)
- GI50 (KM-20L2): 35.5 µM (inactive)
- GI50 (SF-539): 33 µM (inactive)
- GI50 (COLO 205): 39.6 µM (inactive)
- GI50 (UACC-62): 13.1 µM (inactive)
- GI50 (A549): 48.1 µM (inactive)
- GI50 (TK-10): 15.2 µM (inactive)
- GI50 (DLD-1): 34 µM (inactive)
- GI50 (LXFL 529): 22 µM (inactive)
- GI50 (MOLT-4): 25.4 µM (inactive)
- GI50 (OVCAR-8): 34 µM (inactive)
- GI50 (K562): 32.1 µM (inactive)
- GI50 (HT-29): 51.3 µM (inactive)
- GI50 (IGROV-1): 29.2 µM (inactive)
- GI50 (786-0): 39.2 µM (inactive)
- GI50 (SNB-78): 23.6 µM (inactive)
- GI50 (SK-OV-3): 31 µM (inactive)
- GI50 (KM12): 34.7 µM (inactive)
- GI50 (OVCAR-5): > 100 µM (inactive)
- GI50 (OVCAR-3): 24.2 µM (inactive)
- GI50 (NCI-H23): 20.5 µM (inactive)
- GI50 (ACHN): 29.6 µM (inactive)
- GI50 (SNB-75): 32.7 µM (inactive)
- GI50 (NCI-H522): 60.4 µM (inactive)
- GI50 (LOX IMVI): 23.7 µM (inactive)
- GI50 (UACC-257): 24.3 µM (inactive)
- GI50 (OVCAR-4): 15.6 µM (inactive)
- GI50 (M14): 41.7 µM (inactive)
- GI50 (UO-31): 28 µM (inactive)
- GI50 (HOP-62): 29.9 µM (inactive)
- GI50 (SF-295): 60.4 µM (inactive)
- GI50 (NCI-H460): 95.9 µM (inactive)
- GI50 (M19-MEL): 42.5 µM (inactive)
- GI50 (SNB-19): 24.4 µM (inactive)
- GI50 (SK-MEL-28): 56.5 µM (inactive)
- GI50 (U-251): 25.9 µM (inactive)
